The NIST ThermoML archive (doi:10.1021/acs.jced.7b00773)
Numbers after ± are expanded uncertainties.

Details: Liquid; for viscosity: Concentric cylinders viscometry

CCCCCCn1cc[n+](C)c1.N#C[B-](C#N)(C#N)C#N [1-hexyl-3-methylimidazolium tetracyanoborate]
100 kPa
Details	viscosity [mPa·s]
293.15 K	63.69 ± 3
303.15 K	38.1 ± 1.8
313.15 K	24.73 ± 1.1
323.15 K	17.12 ± 0.8
333.15 K	12.48 ± 0.58
343.15 K	9.467 ± 0.44
353.15 K	7.423 ± 0.34
363.15 K	5.982 ± 0.28
373.15 K	4.929 ± 0.23

Details	mass density [kg/m3]
293.15 K, 100 kPa, Vibrating tube method	994.4 ± 2.2
303.15 K, 100 kPa, Vibrating tube method	987.3 ± 2.2
311.8 K, 10000 kPa, Bellows volumetry	986.2 ± 2.5
311.8 K, 20000 kPa, Bellows volumetry	991.5 ± 2.5
311.8 K, 30000 kPa, Bellows volumetry	996.5 ± 2.5
311.8 K, 40000 kPa, Bellows volumetry	1001.3 ± 2.5
311.8 K, 50000 kPa, Bellows volumetry	1005.9 ± 2.5
311.8 K, 60000 kPa, Bellows volumetry	1010.3 ± 2.5
311.8 K, 70000 kPa, Bellows volumetry	1014.5 ± 2.5
311.8 K, 80000 kPa, Bellows volumetry	1018.6 ± 2.5
311.8 K, 90000 kPa, Bellows volumetry	1022.6 ± 2.5
311.8 K, 100000 kPa, Bellows volumetry	1026.5 ± 2.5
311.8 K, 110000 kPa, Bellows volumetry	1030.2 ± 2.5
311.8 K, 120000 kPa, Bellows volumetry	1034 ± 2.5
311.8 K, 130000 kPa, Bellows volumetry	1037.6 ± 2.5
311.8 K, 140000 kPa, Bellows volumetry	1041.1 ± 2.5
311.8 K, 150000 kPa, Bellows volumetry	1044.6 ± 2.5
311.8 K, 160000 kPa, Bellows volumetry	1047.9 ± 2.5
311.8 K, 170000 kPa, Bellows volumetry	1051.2 ± 2.5
311.8 K, 180000 kPa, Bellows volumetry	1054.4 ± 2.5
311.8 K, 190000 kPa, Bellows volumetry	1057.6 ± 2.5
311.8 K, 200000 kPa, Bellows volumetry	1060.7 ± 2.5
313.15 K, 100 kPa, Vibrating tube method	980.1 ± 2.2
323.15 K, 100 kPa, Vibrating tube method	973 ± 2.2
331.8 K, 10000 kPa, Bellows volumetry	972.5 ± 2.5
331.8 K, 20000 kPa, Bellows volumetry	978.1 ± 2.5
331.8 K, 30000 kPa, Bellows volumetry	983.3 ± 2.5
331.8 K, 40000 kPa, Bellows volumetry	988.5 ± 2.5
331.8 K, 50000 kPa, Bellows volumetry	993.3 ± 2.5
331.8 K, 60000 kPa, Bellows volumetry	998 ± 2.5
331.8 K, 70000 kPa, Bellows volumetry	1002.3 ± 2.5
331.8 K, 80000 kPa, Bellows volumetry	1006.7 ± 2.5
331.8 K, 90000 kPa, Bellows volumetry	1010.8 ± 2.5
331.8 K, 100000 kPa, Bellows volumetry	1014.9 ± 2.5
331.8 K, 110000 kPa, Bellows volumetry	1018.8 ± 2.5
331.8 K, 120000 kPa, Bellows volumetry	1022.6 ± 2.5
331.8 K, 130000 kPa, Bellows volumetry	1026.4 ± 2.5
331.8 K, 140000 kPa, Bellows volumetry	1030 ± 2.5
331.8 K, 150000 kPa, Bellows volumetry	1033.5 ± 2.5
331.8 K, 160000 kPa, Bellows volumetry	1037 ± 2.5
331.8 K, 170000 kPa, Bellows volumetry	1040.4 ± 2.5
331.8 K, 180000 kPa, Bellows volumetry	1043.7 ± 2.5
331.8 K, 190000 kPa, Bellows volumetry	1047 ± 2.5
331.8 K, 200000 kPa, Bellows volumetry	1050.2 ± 2.5
333.15 K, 100 kPa, Vibrating tube method	966 ± 2.2
343.15 K, 100 kPa, Vibrating tube method	959.1 ± 2.2
351.6 K, 10000 kPa, Bellows volumetry	959.1 ± 2.5
351.6 K, 20000 kPa, Bellows volumetry	965.1 ± 2.5
351.6 K, 30000 kPa, Bellows volumetry	970.6 ± 2.5
351.6 K, 40000 kPa, Bellows volumetry	976 ± 2.5
351.6 K, 50000 kPa, Bellows volumetry	981 ± 2.5
351.6 K, 60000 kPa, Bellows volumetry	985.9 ± 2.5
351.6 K, 70000 kPa, Bellows volumetry	990.5 ± 2.5
351.6 K, 80000 kPa, Bellows volumetry	995.1 ± 2.5
351.6 K, 90000 kPa, Bellows volumetry	999.4 ± 2.5
351.6 K, 100000 kPa, Bellows volumetry	1003.6 ± 2.5
351.6 K, 110000 kPa, Bellows volumetry	1007.6 ± 2.5
351.6 K, 120000 kPa, Bellows volumetry	1011.5 ± 2.5
351.6 K, 130000 kPa, Bellows volumetry	1015.4 ± 2.5
351.6 K, 140000 kPa, Bellows volumetry	1019.2 ± 2.5
351.6 K, 150000 kPa, Bellows volumetry	1022.9 ± 2.5
351.6 K, 160000 kPa, Bellows volumetry	1026.4 ± 2.5
351.6 K, 170000 kPa, Bellows volumetry	1029.9 ± 2.5
351.6 K, 180000 kPa, Bellows volumetry	1033.3 ± 2.5
351.6 K, 190000 kPa, Bellows volumetry	1036.7 ± 2.5
351.6 K, 200000 kPa, Bellows volumetry	1040 ± 2.5
353.15 K, 100 kPa, Vibrating tube method	952.2 ± 2.2
363.15 K, 100 kPa, Vibrating tube method	945.4 ± 2.2
371.8 K, 10000 kPa, Bellows volumetry	945.8 ± 2.5
371.8 K, 20000 kPa, Bellows volumetry	952 ± 2.5
371.8 K, 30000 kPa, Bellows volumetry	957.9 ± 2.5
371.8 K, 40000 kPa, Bellows volumetry	963.6 ± 2.5
371.8 K, 50000 kPa, Bellows volumetry	969 ± 2.5
371.8 K, 60000 kPa, Bellows volumetry	974 ± 2.5
371.8 K, 70000 kPa, Bellows volumetry	978.8 ± 2.5
371.8 K, 80000 kPa, Bellows volumetry	983.6 ± 2.5
371.8 K, 90000 kPa, Bellows volumetry	988.1 ± 2.5
371.8 K, 100000 kPa, Bellows volumetry	992.4 ± 2.5
371.8 K, 110000 kPa, Bellows volumetry	996.7 ± 2.5
371.8 K, 120000 kPa, Bellows volumetry	1000.8 ± 2.5
371.8 K, 130000 kPa, Bellows volumetry	1004.8 ± 2.5
371.8 K, 140000 kPa, Bellows volumetry	1008.7 ± 2.5
371.8 K, 150000 kPa, Bellows volumetry	1012.5 ± 2.5
371.8 K, 160000 kPa, Bellows volumetry	1016.1 ± 2.5
371.8 K, 170000 kPa, Bellows volumetry	1019.7 ± 2.5
371.8 K, 180000 kPa, Bellows volumetry	1023.3 ± 2.5
371.8 K, 190000 kPa, Bellows volumetry	1026.7 ± 2.5
371.8 K, 200000 kPa, Bellows volumetry	1030.1 ± 2.5
373.15 K, 100 kPa, Vibrating tube method	938.7 ± 2.2
392 K, 10000 kPa, Bellows volumetry	932.8 ± 2.5
392 K, 20000 kPa, Bellows volumetry	939.4 ± 2.5
392 K, 30000 kPa, Bellows volumetry	945.7 ± 2.5
392 K, 40000 kPa, Bellows volumetry	951.6 ± 2.5
392 K, 50000 kPa, Bellows volumetry	957.2 ± 2.5
392 K, 60000 kPa, Bellows volumetry	962.5 ± 2.5
392 K, 70000 kPa, Bellows volumetry	967.6 ± 2.5
392 K, 80000 kPa, Bellows volumetry	972.6 ± 2.5
392 K, 90000 kPa, Bellows volumetry	977.3 ± 2.5
392 K, 100000 kPa, Bellows volumetry	981.8 ± 2.5
392 K, 110000 kPa, Bellows volumetry	986.3 ± 2.5
392 K, 120000 kPa, Bellows volumetry	990.5 ± 2.5
392 K, 130000 kPa, Bellows volumetry	994.6 ± 2.5
392 K, 140000 kPa, Bellows volumetry	998.6 ± 2.5
392 K, 150000 kPa, Bellows volumetry	1002.5 ± 2.5
392 K, 160000 kPa, Bellows volumetry	1006.3 ± 2.5
392 K, 170000 kPa, Bellows volumetry	1010 ± 2.5
392 K, 180000 kPa, Bellows volumetry	1013.6 ± 2.5
392 K, 190000 kPa, Bellows volumetry	1017.2 ± 2.5
392 K, 200000 kPa, Bellows volumetry	1020.6 ± 2.5
412.1 K, 10000 kPa, Bellows volumetry	920.1 ± 2.5
412.1 K, 20000 kPa, Bellows volumetry	927 ± 2.5
412.1 K, 30000 kPa, Bellows volumetry	933.7 ± 2.5
412.1 K, 40000 kPa, Bellows volumetry	939.9 ± 2.5
412.1 K, 50000 kPa, Bellows volumetry	945.8 ± 2.5
412.1 K, 60000 kPa, Bellows volumetry	951.4 ± 2.5
412.1 K, 70000 kPa, Bellows volumetry	956.7 ± 2.5
412.1 K, 80000 kPa, Bellows volumetry	961.8 ± 2.5
412.1 K, 90000 kPa, Bellows volumetry	966.8 ± 2.5
412.1 K, 100000 kPa, Bellows volumetry	971.4 ± 2.5
412.1 K, 110000 kPa, Bellows volumetry	976 ± 2.5
412.1 K, 120000 kPa, Bellows volumetry	980.4 ± 2.5
412.1 K, 130000 kPa, Bellows volumetry	984.7 ± 2.5
412.1 K, 140000 kPa, Bellows volumetry	988.8 ± 2.5
412.1 K, 150000 kPa, Bellows volumetry	992.8 ± 2.5
412.1 K, 160000 kPa, Bellows volumetry	996.7 ± 2.5
412.1 K, 170000 kPa, Bellows volumetry	1000.6 ± 2.5
412.1 K, 180000 kPa, Bellows volumetry	1004.3 ± 2.5
412.1 K, 190000 kPa, Bellows volumetry	1007.9 ± 2.5
412.1 K, 200000 kPa, Bellows volumetry	1011.5 ± 2.5
